US20090022664A1, “Radiolabelling via fluorination of aziridines” (priority 2007, published 2009)

Legend:
[1] = Hydrolytic stability of the β-fluoro amines; type: physicochemical; details: under neutral and basic conditions (FIG. 2)
From the text: The β-fluoro amino acid derivative 11ab-18F is quite stable under neutral and basic conditions (FIG. 2).

[2] = Plasma stability of the β-fluoro amines; type: in vitro ADME; details: in solution with Human Plasma; aliquots incubated for different time periods
Experimental: 675 μl EtOH were added to the reactive-vial and then 5 aliquots of 70 μl of the Plasma solution were incubated for different time periods.

| Hydrolytic stability [1] | Plasma stability [2] | SMILES |
| --- | --- | --- |
| quite stable |  | CC(C)c1cc(C(C)C)c(S(=O)(=O)NC(C[18F])C(=O)NCc2ccccc2)c(C(C)C)c1 (stereo not drawn) [11ab-18F, 3-[^18F]Fluoro-N-benzyl-2-(2,4,6-triisopropylphenylsulphon-amido)-propanamide] |
|  | stable | COc1ccc(S(=O)(=O)NC(C[18F])C(=O)NCc2ccccc2)cc1OC (stereo not drawn) [11ac-18F, 3-[^18F]Fluoro-N-benzyl-2-(3,4-dimethoxyphenylsulphon-amido)-propanamide] |
|  | stable | CC(C)c1cc(C(C)C)c(S(=O)(=O)NC2CN(C(=O)CCC(=O)NCc3ccccc3)CC2[18F])c(C(C)C)c1 (stereo not drawn) [35aa-18F, N-Benzyl-4-[3-[^18F]fluoro-4-(2,4,6-triisopropyl-benzene-sulfonylamino)-pyrrolidin-1-yl]-4-oxo-butyramide] |
